Biological target: T1, human glucokinase (GK) (Homo sapiens, UniProt P35557)
T1 construct: Full-length human hepatic GK (untagged) was expressed in BL21 STAR (DE3)pLysS cells; made in house; host or cells: E. coli BL21 STAR (DE3)pLysS
T1 sequence (P35557 1-466 isoform P35557-2): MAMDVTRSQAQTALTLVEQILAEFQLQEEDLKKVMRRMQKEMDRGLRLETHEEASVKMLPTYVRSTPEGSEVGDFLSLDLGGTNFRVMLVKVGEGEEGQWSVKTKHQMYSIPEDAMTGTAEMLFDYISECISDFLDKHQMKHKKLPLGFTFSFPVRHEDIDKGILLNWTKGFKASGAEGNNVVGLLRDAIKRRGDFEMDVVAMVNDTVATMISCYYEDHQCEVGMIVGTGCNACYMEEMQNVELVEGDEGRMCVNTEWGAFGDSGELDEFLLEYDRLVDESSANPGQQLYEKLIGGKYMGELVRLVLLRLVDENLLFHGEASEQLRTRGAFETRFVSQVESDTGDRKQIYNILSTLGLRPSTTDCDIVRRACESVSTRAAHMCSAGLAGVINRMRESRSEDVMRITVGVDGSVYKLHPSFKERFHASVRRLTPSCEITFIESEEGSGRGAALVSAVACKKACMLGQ
Assay: Glucokinase tandem enzymatic assay
Format: biochemical
Conditions: 12 mM glucose; expressed as % of basal activation; EC50 could not be calculated; read-out: Maximal activation (%) Human Glucokinase @ 12 mM Glucose
Method: Glucokinase Tandem Enzymatic Assay
Enzymatic activity of human glucokinase (GK) was measured by incubating GK, ATP, and glucose for discrete time periods followed by quenching with EDTA (ethylenediamine tetra-acetic acid). Relative amounts of product glucose-6-phosphate (G6P) were measured by then running a detection assay using G6P dehydrogenase and measuring the conversion of ThioNAD (thio-nicotinamide adenine dinucleotide) to ThioNADH (thio-dihydronicotinamide adenine dinucleotide) at a wavelength of 405 nm. This ‘uncoupled’ enzymatic reaction is denoted as the GK ‘tandem’ assay. Activation of GK by compounds can be assessed using this assay. The GK tandem assay protocol described below was followed using a range of activator compound concentrations from 0 to 100 μM at 5 and 12 mM of glucose. Human full-length glucokinase (GK, 15 nM) was incubated with 5 or 12 mM glucose in a 384 well black microtiter plate with a clear bottom. To initiate the GK reaction, magnesium-ATP (3 mM final concentration) was added to GK in buffer (final buffer conditions of 25 mM HEPES buffer, pH 7.1, containing 1 mM dithiothreitol and 5% DMSO). The total reaction volume was 20 μL. The reaction was allowed to proceed for ten minutes and was then quenched with 5 μL EDTA; 45 mM final). The components of the detection reaction, ThioNAD and G6PDH (glucose-6-phosphate dehydrogenase) (final concentrations of 650 μM and 3.33 Units, respectively), were then added together in a volume of 25 μL, (to give a total volume of 50 μL). Absorbance measurements were made at 405 nm on a Spectramax Plus 384 absorbance plate reader (Molecular Devices). Absorbance was read, background glucose-6-phosphate levels were subtracted, after which activation was calculated as a percentage of control activity. Control activity was determined using GK in the presence of vehicle (DMSO), with background glucose-6-phosphate subtracted. Background glucose-6-phosphate was determined by pre-quenching GK with EDTA prior to reaction initiation with ATP.
Expression and Purification of Human GK
Full-length human hepatic GK (untagged) was expressed in BL21 STAR (DE3)pLysS cells (Invitrogen) at 25° C. as described by Mookhtiar et al. (1). The protein was purified essentially as described by Lange (2) with a slight modification. Briefly, cell pellets were lysed via three rounds of freezing and thawing, centrifuged at 15000 g for clarification, and precipitated with 40-65% (NH4)2SO4. The resulting pellet was resuspended in buffer, dialyzed, and applied directly to a Q-Sepharose (Sigma) column followed by elution with a linear 100-600 mM KCl gradient. GK containing fractions were pooled, dialyzed overnight vs. 25 mM Hepes pH 7.2/1 mM MgCl2/1 mM EDTA/0.1 M KCl/1 mM DTT, then dialyzed again with same buffer with 10% glycerol added.

Q: With `COC[C@H](C)Oc1cc(O[C@@H](C)Cc2ccccc2)cc(C(=O)Nc2ncc(Oc3cccc(C(=O)O)c3)s2)c1` [Example 32] as the compound, how does the Emax read?
A: 118%

Q: `CC(C)Oc1cc(Oc2ccc(C(=O)N3CCC3)nc2)cc(C(=O)Nc2ncc(Oc3cccc(C(=O)O)c3)s2)c1` [Example 46] was tested. Which Emax did it give?
A: 124%

Same assay, conditions: 12 mM glucose; full-length human GK 15 nM

Q: For `COC[C@H](C)Oc1cc(Oc2ccc(S(C)(=O)=O)cc2)cc(C(=O)Nc2ncc(Oc3cccc(C(N)=O)c3)s2)c1` [Example 3], which EC50 is on record?
A: 13 nM

Q: Which EC50 does the source give for `CS(=O)(=O)c1ccc(Oc2cc(Oc3ccnc(Cl)c3)cc(C(=O)Nc3ncc(Oc4cccc(C(=O)O)c4)s3)c2)cc1` [Example 42] here?
A: 170 nM

Q: How did the EC50 turn out when `CC(C)Oc1cc(OC(C)C)cc(C(=O)Nc2ncc(Oc3ccc(F)nc3)s2)c1` [Example 17] was run?
A: 179 nM

Q: `CC(C)Oc1cc(OC(C)C)cc(C(=O)Nc2ncc(Oc3cccc(C(=O)O)c3)s2)c1` [Example 11] was tested. Which EC50 did it give?
A: 171 nM

Q: `COC[C@H](C)Oc1cc(Oc2ccc(S(C)(=O)=O)cc2)cc(C(=O)Nc2ncc(Oc3cccc(C(=O)N4CC(O)C4)c3)s2)c1` [Example 34] was tested. Which EC50 did it give?
A: 16 nM

Q: How did the EC50 turn out when `COC[C@H](C)Oc1cc(Oc2ccc(S(C)(=O)=O)cc2)cc(C(=O)Nc2ncc(Oc3cccc(C(=O)N4CCC4)c3)s2)c1` [Example 33] was run?
A: 6 nM

Q: How did the EC50 turn out when `CC(C)Oc1cc(Oc2ccc(S(C)(=O)=O)nc2)cc(C(=O)Nc2ncc(Oc3cccc(C(=O)O)c3)s2)c1` [Example 45] was run?
A: 34 nM

Q: `COC[C@H](C)Oc1cc(Oc2ccc(S(C)(=O)=O)cc2)cc(C(=O)Nc2ncc(Oc3cccc(C(=O)O)c3)s2)c1` [Example 4] was tested. Which EC50 did it give?
A: 47 nM

Same assay, conditions: read-out: Maximal activation (%) Human Glucokinase @ 12 mM Glucose

Q: With `CNC(=O)Oc1cccc(Oc2cnc(NC(=O)c3cc(Oc4ccc(S(C)(=O)=O)cc4)cc(O[C@@H](C)COC)c3)s2)c1` [Example 38] as the compound, how does the Emax read?
A: 144%

Test system: male DIO (diet-induced obese) C57BL/6J mice
Assay: Oral glucose tolerance test (OGTT) in DIO mice
Format: in vivo
Conditions: 30 mg/kg oral, 60 min before 2 g/kg oral glucose; ΔAUC 0-120 min; DIO C57BL/6J mice
Method: In Vivo Studies: Oral Glucose Tolerance Test (OGTT)
Oral glucose tolerance tests were carried out on male DIO (diet-induced obese) C57BL/6J mice fed a high fat diet (60% kcal from fat) for 26 weeks prior to experimentation. Mice were fasted overnight before use for experiments. A test compound or vehicle (10% dimethyl acetamide+10% ethanol+10% Cremophore+70% water) was given orally 60 min before oral administration of a glucose solution at a dose of 2 g/kg body weight (oral glucose tolerance test; OGTT). Blood glucose levels were measured from tail-bled samples taken at different time points before and after administration of glucose (time course of 2 hours). A time curve of the blood glucose was generated and the change from baseline area-under-the curve (ΔAUC) from 0-120 min was calculated (the time glucose administration being time zero).

Q: `COC[C@H](C)Oc1cc(Oc2ccc(S(C)(=O)=O)cc2)cc(C(=O)Nc2ncc(Oc3cccc(C(=O)O)c3)s2)c1` [Example 4] was tested. Which “Reduction in Glucose AUC at 30 mg/kg dose” value did it give?
A: 37%
